Experimental data reported in US6544511B2, “Plant disease control agent” (Akatsuka Orchid Co., Ltd., priority 2000, dated 2003).
Numbered stars: 1 amine (or outer) side, 2 acyl side, 3 side chain; on linkers, the order of the positions; unused ones are H or OH. Bridge positions count the residues as written; N and C are the ends. Square brackets hold non-standard residues; d marks the D form. Peptide text beside a SMILES is read from it. I, II: the chains in the order shown. Actinocin(9to1) = Cc1c2oc3c(C)ccc(C(=O)[*:1])c3nc-2c(C(=O)[*:2])c(N)c1=O; NMeV = CN[C@H](C(=O)O)C(C)C; Sar = CNCC(=O)O

Columns and labels:
[1] = tested on: Pestalotiopsis sydowiana MAFF No. 305755; assay: Antibiotic sensitivity test for pathogenic filamentous fungi (mycelial mat diameter); assay type: cell-based; details: for Sensitivity of Pestalotiopsis sydowiana against antibiotic: 0.1, 1, 10 μg/ml in potato sucrose agar medium, 3 days (FIGS. 12, 13)
Method: (§1) Pathogenic filamentous fungi were tested for their sensitivity against antibiotics belonging to actinomycin and polyen anti-fungal antibiotics shown to be produced by R-5 strain. First, actinomycin D or amphotericin B (polyen anti-fungal antibiotic) was dissolved to concentrations of 0.1, 1, and 10 μg/mil in potato sucrose agar medium cooled to about 45° C., and solidified. Mycelial disks with a diameter of 6 mm, which had been stamped out from mycelial mats of Phytophthora cinnamomi MAFF No. 305565 or Pestalotiopsis sydowiana MAFF No. 305755 pre-cultured for 7 days on potato sucrose agar medium, were inoculated onto the potato sucrose agar medium solidified as described above. Each diameter of the mycelial mats was measured with time for 3 days.

[2] = tested on: Phytophthora cinnamomi MAFF No. 305565; assay: as above; assay type: cell-based; details: for Sensitivity of Phytophthora cinnamomi against antibiotic: 0.1, 1, 10 μg/ml in potato sucrose agar medium, 3 days (FIGS. 10, 11)
Method: as §1

How did the “Growth of the mycelia of Pestalotiopsis sydowiana” value ([1]; 10 μg/ml) turn out when `Cc1c2oc3c(C)ccc(C(=O)N[C@@H]4C(=O)N[C@H](C(C)C)C(=O)N5CCC[C@H]5C(=O)N(C)CC(=O)N(C)[C@@H](C(C)C)C(=O)O[C@@H]4C)c3nc-2c(C(=O)N[C@@H]2C(=O)N[C@H](C(C)C)C(=O)N3CCC[C@H]3C(=O)N(C)CC(=O)N(C)[C@@H](C(C)C)C(=O)O[C@@H]2C)c(N)c1=O` [actinomycin D] (I: T[dV]P[Sar][NMeV] / II: T[dV]P[Sar][NMeV]; ester I:1-I:C, II:1-II:C; linker I:N-II:N via Actinocin(9to1)) was run?
Its value is “significantly suppressed the growth”.

And the “Sensitivity of Pestalotiopsis sydowiana against antibiotic” value [1]?
Its value is “weak sensitivity”.

What about the “Growth of the mycelial mat of Phytophthora cinnamomi” value ([2]; 10 μg/ml) of the same compound?
The value was “completely stopped the growth”.

What about the “Sensitivity of Phytophthora cinnamomi against antibiotic” value [2] of the same compound?
The value was “showed sensitivity”.

What does the source list for `C[C@@H]1[C@H](O)[C@@H](C)/C=C/C=C/C=C/C=C/C=C/C=C/C=C/[C@H](O[C@@H]2O[C@H](C)[C@@H](O)[C@H](N)[C@@H]2O)C[C@@H]2O[C@](O)(C[C@@H](O)C[C@@H](O)[C@H](O)CC[C@@H](O)C[C@@H](O)CC(=O)O[C@H]1C)C[C@H](O)[C@H]2C(=O)O` [amphotericin B]?
Growth of the mycelia of Pestalotiopsis sydowiana ([1]; 0.1 μg/ml): completely suppressed the growth of the mycelia; Sensitivity of Pestalotiopsis sydowiana against antibiotic [1]: high sensitivity; Sensitivity of Phytophthora cinnamomi against antibiotic [2]: almost no sensitivity
